Measurements: paper PMC12285759 (RSC Advances, 2025)

Tested on: Vero Cells
Experiment: MTT assay, cytotoxicity of the test compounds
Assay type: cell-based
Settings: not tested for inhibitory effect

`O=c1ccn([C@@H]2O[C@H](COCc3ccccc3)[C@H](OCc3ccccc3)[C@H](OCc3ccccc3)[C@H]2I)c(=O)[nH]1` [3h] was tested, and the “cytotoxicity (in words)” value was “cytotoxic”.
